# Test results reported in patent US9493446B2, “Orexin receptor antagonists which are [ortho bi-(hetero-)aryl]-[2-(meta bi-(hetero-)aryl)-pyrrolidin-1-yl]-methanone derivatives” (Actelion Pharmaceuticals Ltd, priority 2012, dated 2016).
# Read-outs that look alike come from different tables or passages of the source.
# Assays:
# [1] = molecular target: orexin-1 (Homo sapiens (Human), UniProt O43613); test: Intracellular calcium measurement (FLIPR), CHO cells expressing human orexin-1 receptor, 3 nM orexin-A; format: cell-based; details: read-out: IC50 OX1
# Chain of orexin-1 (O43613 whole entry): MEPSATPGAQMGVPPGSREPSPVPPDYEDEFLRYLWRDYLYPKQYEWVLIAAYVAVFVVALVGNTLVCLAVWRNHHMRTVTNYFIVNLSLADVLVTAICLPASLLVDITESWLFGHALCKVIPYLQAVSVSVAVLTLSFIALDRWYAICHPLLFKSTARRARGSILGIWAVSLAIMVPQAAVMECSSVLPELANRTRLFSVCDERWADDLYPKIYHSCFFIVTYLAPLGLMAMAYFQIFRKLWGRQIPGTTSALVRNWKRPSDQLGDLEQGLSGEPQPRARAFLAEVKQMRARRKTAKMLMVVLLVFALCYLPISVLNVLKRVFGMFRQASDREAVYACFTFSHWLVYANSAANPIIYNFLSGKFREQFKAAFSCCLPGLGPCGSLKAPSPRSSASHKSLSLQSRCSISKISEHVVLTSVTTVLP
# Outline: (§1)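 CHO transfectants were dye-loaded (fluo-4 AM, probenecid) and exposed to antagonist for 120 min ahead of agonist.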
# [2] = molecular target: human orexin-2 receptor (Homo sapiens (Human), UniProt O43614); test: Intracellular calcium measurement (FLIPR), CHO cells expressing human orexin-2 receptor, 3 nM orexin-A; format: cell-based; details: read-out: IC50 OX2
# Chain of human orexin-2 receptor (O43614 whole entry): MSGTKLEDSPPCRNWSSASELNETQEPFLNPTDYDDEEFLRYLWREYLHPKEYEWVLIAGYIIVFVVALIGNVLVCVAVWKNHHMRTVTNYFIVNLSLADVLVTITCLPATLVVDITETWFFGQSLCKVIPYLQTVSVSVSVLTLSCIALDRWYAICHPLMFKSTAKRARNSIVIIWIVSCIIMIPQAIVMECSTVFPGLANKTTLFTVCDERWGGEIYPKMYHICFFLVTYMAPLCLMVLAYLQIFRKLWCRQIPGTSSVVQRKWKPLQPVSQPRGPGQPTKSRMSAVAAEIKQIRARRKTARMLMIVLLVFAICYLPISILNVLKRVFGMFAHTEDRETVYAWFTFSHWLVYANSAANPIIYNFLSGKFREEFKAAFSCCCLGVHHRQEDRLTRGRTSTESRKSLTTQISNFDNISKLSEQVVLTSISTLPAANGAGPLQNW
# Outline: as §1
# [3] = CHO cells expressing human orexin-1 receptor, FLIPR, 3 nM orexin-A, geometric mean if determined several times
# [4] = CHO cells expressing human orexin-2 receptor, FLIPR, 3 nM orexin-A, geometric mean if determined several times
SMILES,"IC50 [1, 3]","IC50 [2, 4]",IC50 [2],IC50 [1]
"O=C(c1ncoc1-c1ccccc1)N1CCC[C@H]1c1nnc(-c2ccccc2OC(F)(F)F)[nH]1 [compound 484, (5-Phenyl-oxazol-4-yl)-{(S)-2-[5-(2-trifluoromethoxy-phenyl)-4H-[1,2,4]triazol-3-yl]-pyrrolidin-1-yl}-methanone]",5020 nM,3000 nM,,
"Cc1cccc(-c2scnc2C(=O)N2CCC[C@H]2c2nnc(-c3ccccc3OC(F)(F)F)[nH]2)c1 [compound 485, (5-m-Tolyl-thiazol-4-yl)-{(S)-2-[5-(2-trifluoromethoxy-phenyl)-4H-[1,2,4]triazol-3-yl]-pyrrolidin-1-yl}-methanone]",1300 nM,1230 nM,,
"Cc1cccc(-c2ocnc2C(=O)N2CCC[C@H]2c2nnc(-c3ccccc3OC(F)(F)F)[nH]2)c1 [compound 486, (5-m-Tolyl-oxazol-4-yl)-{(S)-2-[5-(2-trifluoromethoxy-phenyl)-4H-[1,2,4]triazol-3-yl]-pyrrolidin-1-yl}-methanone]",2360 nM,3130 nM,,
"CCOc1ncccc1-c1nnc([C@@H]2CCCN2C(=O)c2cc(Cl)c(C)cc2-n2nccn2)[nH]1 [compound 487, (5-Chloro-4-methyl-2-[1,2,3]triazol-2-yl-phenyl)-{(S)-2-[5-(2-ethoxy-pyridin-3-yl)-4H-[1,2,4]triazol-3-yl]-pyrrolidin-1-yl}-methanone]",23 nM,8 nM,,
"COc1c(Cl)cccc1-c1nnc([C@@H]2CCCN2C(=O)c2cc(C)ccc2-n2nccn2)[nH]1 [compound 488, {(S)-2-[5-(3-Chloro-2-methoxy-phenyl)-4H-[1,2,4]triazol-3-yl]-pyrrolidin-1-yl}-(5-methyl-2-[1,2,3]triazol-2-yl-phenyl)-methanone]",136 nM,14 nM,,
"COc1c(Cl)cccc1-c1nnc([C@@H]2CCCN2C(=O)c2ccc(C)cc2-n2nccn2)[nH]1 [compound 489, {(S)-2-[5-(3-Chloro-2-methoxy-phenyl)-4H-[1,2,4]triazol-3-yl]-pyrrolidin-1-yl}-(4-methyl-2-[1,2,3]triazol-2-yl-phenyl)-methanone]",62 nM,10 nM,,
"COc1cc(C(=O)N2CCC[C@H]2c2nnc(-c3cccc(Cl)c3OC)[nH]2)c(-n2nccn2)cc1C [compound 490, {(S)-2-[5-(3-Chloro-2-methoxy-phenyl)-4H-[1,2,4]triazol-3-yl]-pyrrolidin-1-yl}-(5-methoxy-4-methyl-2-[1,2,3]triazol-2-yl-phenyl)-methanone]",120 nM,2 nM,,
"COc1cc(C(=O)N2CCC[C@H]2c2nnc(-c3cccc(Cl)c3OC)[nH]2)c(-n2nccn2)cc1Cl [compound 491, {(S)-2-[5-(3-Chloro-2-methoxy-phenyl)-4H-[1,2,4]triazol-3-yl]-pyrrolidin-1-yl}-(4-chloro-5-methoxy-2-[1,2,3]triazol-2-yl-phenyl)-methanone]",33 nM,1 nM,,
"COc1c(Cl)cccc1-c1nnc([C@@H]2CCCN2C(=O)c2cc(C)c(C)cc2-n2nccn2)[nH]1 [compound 492, {(S)-2-[5-(3-Chloro-2-methoxy-phenyl)-4H-[1,2,4]triazol-3-yl]-pyrrolidin-1-yl}-(4,5-dimethyl-2-[1,2,3]triazol-2-yl-phenyl)-methanone]",27 nM,3 nM,,
Cc1ccc(-n2nccn2)c(C(=O)N2CCC[C@H]2c2nnc(-c3cccc(Cl)c3C)[nH]2)c1 [compound 493],1140 nM,,29 nM,
"Cc1ccc(-n2nccn2)c(C(=O)N2CCC[C@H]2c2nnc(-c3cccc(F)c3C)[nH]2)c1 [compound 494, {(S)-2-[5-(3-Fluoro-2-methyl-phenyl)-4H-[1,2,4]triazol-3-yl]-pyrrolidin-1-yl}-(5-methyl-2-[1,2,3]triazol-2-yl-phenyl)-methanone]",847 nM,27 nM,,
"CCOc1ccccc1-c1nnc([C@@H]2CCCN2C(=O)c2cc(C)ccc2-n2nccn2)[nH]1 [compound 495, {(S)-2-[5-(2-Ethoxy-phenyl)-4H-[1,2,4]triazol-3-yl]-pyrrolidin-1-yl}-(5-methyl-2-[1,2,3]triazol-2-yl-phenyl)-methanone]",39 nM,38 nM,,
"CCOc1ncccc1-c1nnc([C@@H]2CCCN2C(=O)c2cc(C)ccc2-n2nccn2)[nH]1 [compound 496, {(S)-2-[5-(2-Ethoxy-pyridin-3-yl)-4H-[1,2,4]triazol-3-yl]-pyrrolidin-1-yl}-(5-methyl-2-[1,2,3]triazol-2-yl-phenyl)-methanone]",57 nM,50 nM,,
"COc1c(F)cccc1-c1nnc([C@@H]2CCCN2C(=O)c2cc(C)ccc2-n2nccn2)[nH]1 [compound 497, {(S)-2-[5-(3-Fluoro-2-methoxy-phenyl)-4H-[1,2,4]triazol-3-yl]-pyrrolidin-1-yl}-(5-methyl-2-[1,2,3]triazol-2-yl-phenyl)-methanone]",49 nM,46 nM,,
Cc1cc(-n2nccn2)c(C(=O)N2CCC[C@H]2c2nnc(-c3ccccc3OC(F)(F)F)[nH]2)cc1Cl [compound 500],8 nM,2 nM,,
"Cc1ccc(C(=O)N2CCC[C@H]2c2nnc(-c3ccccc3OC(F)(F)F)[nH]2)c(-n2nccn2)c1 [compound 501, (4-Methyl-2-[1,2,3]triazol-2-yl-phenyl)-{(S)-2-[5-(2-trifluoromethoxy-phenyl)-4H-[1,2,4]triazol-3-yl]-pyrrolidin-1-yl}-methanone]",27 nM,4 nM,,

SMILES,"IC50 [1, 3]","IC50 [2, 4]",IC50 [2],IC50 [1]
"O=C(c1ccccc1-n1nccn1)N1CCC[C@H]1c1nnc(-c2ccccc2OC(F)(F)F)[nH]1 [compound 503, (2-[1,2,3]Triazol-2-yl-phenyl)-{(S)-2-[5-(2-trifluoromethoxy-phenyl)-4H-[1,2,4]triazol-3-yl]-pyrrolidin-1-yl}-methanone]",156 nM,27 nM,,
O=C(c1cc(Cl)ccc1-n1nccn1)N1CCC[C@H]1c1nnc(-c2ccccc2OC(F)(F)F)[nH]1 [compound 504],104 nM,,5 nM,
"Cc1nc(C(=O)N2CCC[C@H]2c2nnc(-c3ccccc3OC(F)(F)F)[nH]2)c(-c2ccccc2)s1 [compound 506, (2-Methyl-5-phenyl-thiazol-4-yl)-{(S)-2-[5-(2-trifluoromethoxy-phenyl)-4H-[1,2,4]triazol-3-yl]-pyrrolidin-1-yl}-methanone]",171 nM,116 nM,,
"O=C(c1ccccc1-c1ccccc1)N1CCC[C@H]1c1nnc(-c2ccccc2OC(F)(F)F)[nH]1 [compound 508, Biphenyl-2-yl-{(S)-2-[5-(2-trifluoromethoxy-phenyl)-4H-[1,2,4]triazol-3-yl]-pyrrolidin-1-yl}-methanone]",239 nM,84 nM,,
COc1cc(C(=O)N2CCC[C@H]2c2nnc(-c3ccccc3OC(F)(F)F)[nH]2)c(-n2nccn2)cc1Cl [compound 509],22 nM,3 nM,,
"CCc1ccccc1-c1nnc([C@@H]2CCCN2C(=O)c2cc(C)ccc2-n2nccn2)[nH]1 [compound 512, {(S)-2-[5-(2-Ethyl-phenyl)-4H-[1,2,4]triazol-3-yl]-pyrrolidin-1-yl}-(5-methyl-2-[1,2,3]triazol-2-yl-phenyl)-methanone]",652 nM,80 nM,,
"COc1cccc(-c2nnc([C@@H]3CCCN3C(=O)c3cc(C)ccc3-n3nccn3)[nH]2)c1 [compound 513, {(S)-2-[5-(3-Methoxy-phenyl)-4H-[1,2,4]triazol-3-yl]-pyrrolidin-1-yl}-(5-methyl-2-[1,2,3]triazol-2-yl-phenyl)-methanone]",812 nM,181 nM,,
"COc1ccc(-c2nnc([C@@H]3CCCN3C(=O)c3cc(C)ccc3-n3nccn3)[nH]2)cc1 [compound 514, {(S)-2-[5-(4-Methoxy-phenyl)-4H-[1,2,4]triazol-3-yl]-pyrrolidin-1-yl}-(5-methyl-2-[1,2,3]triazol-2-yl-phenyl)-methanone]",> 6560 nM,3490 nM,,
"CCCOc1ccccc1-c1nnc([C@@H]2CCCN2C(=O)c2cc(C)ccc2-n2nccn2)[nH]1 [compound 515, (5-Methyl-2-[1,2,3]triazol-2-yl-phenyl)-{(S)-2-[5-(2-propoxy-phenyl)-4H-[1,2,4]triazol-3-yl]-pyrrolidin-1-yl}-methanone]",400 nM,646 nM,,
"Cc1ccc(C(=O)N2CCC[C@H]2c2ncc(-c3ccccc3OC(F)(F)F)[nH]2)c(-n2nccn2)c1 [compound 517, (4-Methyl-2-[1,2,3]triazol-2-yl-phenyl)-{(S)-2-[5-(2-trifluoromethoxy-phenyl)-1H-imidazol-2-yl]-pyrrolidin-1-yl}-methanone]",6 nM,2 nM,,
"CCOc1ccccc1-c1cnc([C@@H]2CCCN2C(=O)c2ccc(C)cc2-n2nccn2)[nH]1 [compound 518, {(S)-2-[5-(2-Ethoxy-phenyl)-1H-imidazol-2-yl]-pyrrolidin-1-yl}-(4-methyl-2-[1,2,3]triazol-2-yl-phenyl)-methanone]",2 nM,1 nM,,
"Cc1ccc(-n2nccn2)c(C(=O)N2CCC[C@H]2c2cnc(-c3ccccc3)[nH]2)c1 [compound 519, (5-Methyl-2-[1,2,3]triazol-2-yl-phenyl)-[(S)-2-(2-phenyl-3H-imidazol-4-yl)-pyrrolidin-1-yl]-methanone]",1390 nM,720 nM,,
Cc1ccc(-n2nccn2)c(C(=O)N2CCC[C@H]2c2cnc(-c3cccc(Cl)c3C)[nH]2)c1 [compound 521],2510 nM,681 nM,,
Cc1ccc(C(=O)N2CCC[C@H]2c2cnc(-c3cccc(Cl)c3C)[nH]2)c(-n2nccn2)c1 [compound 522],,,367 nM,2110 nM
Cc1ccc(-n2nccn2)c(C(=O)N2CCC[C@H]2c2ncc(-c3cccc(Cl)c3)[nH]2)c1 [compound 523],428 nM,103 nM,,
